This series deals with CCRIS mutagenicity, Ames/micronucleus/aberration tests. The series can be described thus: CCRIS mutagenicity studies.
Where [1] appears, read: Test System: AMES SALMONELLA TYPHIMURIUM, Strain/Indicator: TA98, Metabolic Activation: NONE, Method: PREINCUBATION
[2] abbreviates: Test System: AMES SALMONELLA TYPHIMURIUM, Strain/Indicator: TA100, Metabolic Activation: NONE, Method: PREINCUBATION
[3] abbreviates: Test System: AMES SALMONELLA TYPHIMURIUM, Strain/Indicator: TA100, Metabolic Activation: NONE, Method: STANDARD PLATE.
Setting [4] is: Test System: Ames Salmonella typhimurium, Strain/Indicator: TA98, Metabolic Activation: None, Method: Preincubation.
[5] abbreviates: Test System: Ames Salmonella typhimurium, Strain/Indicator: TA100, Metabolic Activation: None, Method: Preincubation.
Setting [6] is: Test System: Ames Salmonella typhimurium, Strain/Indicator: TA1535, Metabolic Activation: None, Method: Preincubation.
Where [7] appears, read: Test System: AMES SALMONELLA TYPHIMURIUM, Strain/Indicator: TA98, Metabolic Activation: NONE, Method: STANDARD PLATE.

Calls of active or inactive are those of the source. The rule behind the calls is not given here.

For `Cc1cc2ccccc2c2ccc3ccccc3c12`, the mutagenic call was “active; positive. highly potent. protection against mutagenicity by human glutathione s-” (End Point: Chinese hamster lung fibroblasts, Strain/Indicator: V79MZ/HPRT/6-Thioguanidine, Metabolic Activation: Stably transfected human CYP1A1 (hCYP1A1), Method: Preincubation); “active; positive. highly potent. protection against mutagenicity by human glutathione s-” (End Point: Chinese hamster lung fibroblasts, Strain/Indicator: V79MZ/HPRT/6-Thioguanidine, Metabolic Activation: Stably transfected human CYP1B1 (hCYP1B1), Method: Preincubation); “inactive; negative” under setting [1]; “active; positive” (Test System: AMES SALMONELLA TYPHIMURIUM, Strain/Indicator: TA98, Metabolic Activation: RAT, LIVER, S-9, AROCLOR 1254, Method: STANDARD PLATE); “active; positive” (Test System: AMES SALMONELLA TYPHIMURIUM, Strain/Indicator: TA98, Metabolic Activation: RAT, LIVER, S-9, Method: PREINCUBATION); “inactive; negative” under setting [2]. For the same compound, the mutagenic call under setting [3] is “inactive; negative”; the mutagenic call (Test System: AMES SALMONELLA TYPHIMURIUM, Strain/Indicator: TA100, Metabolic Activation: RAT, LIVER, MICROSOMES, 5-METHYLCHRYSENE, Method: STANDARD PLATE) was “inactive; negative”; the mutagenic call (Test System: AMES SALMONELLA TYPHIMURIUM, Strain/Indicator: TA100, Metabolic Activation: RAT, LIVER, MICROSOMES, AROCLOR 1254, Method: STANDARD PLATE) was “active; positive”; the mutagenic call (Test System: AMES SALMONELLA TYPHIMURIUM, Strain/Indicator: TA100, Metabolic Activation: RAT, LIVER, MICROSOMES, Method: STANDARD PLATE) is “inactive; negative”; the mutagenic call (Test System: AMES SALMONELLA TYPHIMURIUM, Strain/Indicator: TA100, Metabolic Activation: RAT, LIVER, S-9, AROCLOR 1254, Method: STANDARD PLATE) is “active; positive”; the mutagenic call (Test System: AMES SALMONELLA TYPHIMURIUM, Strain/Indicator: TA100, Metabolic Activation: RAT, LIVER, S-9, Method: PREINCUBATION) is “active; positive”.

For `COc1ccc(N/C=C/C2=[N+](C)c3ccccc3C2(C)C)c(OC)c1`, the mutagenic call reads like this: under setting [4], “inactive; negative”; (Test System: Ames Salmonella typhimurium, Strain/Indicator: TA98, Metabolic Activation: Rat, Liver, S-9, Aroclor 1254, Method: Preincubation) “inactive; negative”; under setting [5], “inactive; negative”; (Test System: Ames Salmonella typhimurium, Strain/Indicator: TA100, Metabolic Activation: Rat, Liver, S-9, Aroclor 1254, Method: Preincubation) “inactive; negative”; (Test System: Ames Salmonella typhimurium, Strain/Indicator: TA102, Metabolic Activation: None, Method: Preincubation) “inactive; negative”; (Test System: Ames Salmonella typhimurium, Strain/Indicator: TA102, Metabolic Activation: Rat, Liver, S-9, Aroclor 1254, Method: Preincubation) “inactive; negative”. Further, the mutagenic call by setting is: under setting [6], “inactive; negative”; (Test System: Ames Salmonella typhimurium, Strain/Indicator: TA1535, Metabolic Activation: Rat, Liver, S-9, Aroclor 1254, Method: Preincubation) “inactive; negative”.

As for `COc1cccc(C=O)c1O`, the mutagenic call runs as follows: under setting [7], “inactive; negative”; under setting [3], “inactive; negative”; (Test System: E. COLI, Strain/Indicator: CM561 LEXA, Metabolic Activation: NONE, Method: STANDARD PLATE) “inactive; negative”; (Test System: E. COLI, Strain/Indicator: CM611 UVRA/LEXA, Metabolic Activation: NONE, Method: STANDARD PLATE) “inactive; negative”; (Test System: E. COLI, Strain/Indicator: WP2 UVRA, Metabolic Activation: NONE, Method: STANDARD PLATE) “inactive; negative”.

As for `CCOC(=O)CN=[N+]=[N-]`, the mutagenic call (Test System: AMES SALMONELLA TYPHIMURIUM, Strain/Indicator: TA1530, Metabolic Activation: NONE, Method: STANDARD PLATE) was “active; positive”.

`CN(C)CCCNc1c2ccccc2nc2c(Cl)ccc([N+](=O)[O-])c12`: the mutagenic call is, setting by setting: under setting [7], “active; positive”; under setting [3], “active; positive”.

Take `Cc1cccc2c1cc1c3c(cccc32)-c2ccccc2-1`: where the note is “Test System: AMES SALMONELLA TYPHIMURIUM, Strain/Indicator: TA100, Metabolic Activation: RAT, LIVER, S-9, AROCLOR 1254”, the mutagenic call is “active; positive”.

For `Cc1ccc2c(c1O)C(=O)c1ccccc1C2=O`, the mutagenic call under setting [1] is “inactive; negative”; the mutagenic call (Test System: AMES SALMONELLA TYPHIMURIUM, Strain/Indicator: TA98, Metabolic Activation: RAT, LIVER, S-9, PCB, Method: PREINCUBATION) is “active; positive”; the mutagenic call under setting [2] is “inactive; negative”; the mutagenic call (Test System: AMES SALMONELLA TYPHIMURIUM, Strain/Indicator: TA100, Metabolic Activation: RAT, LIVER, S-9, PCB, Method: PREINCUBATION) was “active; positive”.

With `C=Cc1ccc(S(=O)(=O)O)cc1`, the mutagenic call by setting is: under setting [4], “inactive; negative”; (Test System: Ames Salmonella typhimurium, Strain/Indicator: TA98, Metabolic Activation: Rat, Liver, S-9, Phenobarbital and 5,6-benzoflavone, Method: Preincubation) “inactive; negative”; under setting [5], “inactive; negative”; (Test System: Ames Salmonella typhimurium, Strain/Indicator: TA100, Metabolic Activation: Rat, Liver, S-9, Phenobarbital and 5,6-benzoflavone, Method: Preincubation) “inactive; negative”; under setting [6], “inactive; negative”; (Test System: Ames Salmonella typhimurium, Strain/Indicator: TA1535, Metabolic Activation: Rat, Liver, S-9, Phenobarbital and 5,6-benzoflavone, Method: Preincubation) “inactive; negative”. The mutagenic call reads like this: (Test System: Ames Salmonella typhimurium, Strain/Indicator: TA1537, Metabolic Activation: None, Method: Preincubation) “inactive; negative”; (Test System: Ames Salmonella typhimurium, Strain/Indicator: TA1537, Metabolic Activation: Rat, Liver, S-9, Phenobarbital and 5,6-benzoflavone, Method: Preincubation) “inactive; negative”; (Test System: E. coli, Strain/Indicator: WP2uvrA/pKM101, Metabolic Activation: None, Method: Preincubation) “inactive; negative”; (Test System: E. coli, Strain/Indicator: WP2uvrA/pKM101, Metabolic Activation: Rat, Liver, S-9, Phenobarbital and 5,6-benzoflavone, Method: Preincubation) “inactive; negative”.

The record behind these values is PubChem BioAssay AID1259407 (Chemical Carcinogenesis Research Information System (CCRIS), 2018).
